Assay results from patent US20260125374A1, “PI3K-ALPHA INHIBITORS AND METHODS OF MAKING AND USING THE SAME” (Relay Therapeutics, Inc., priority 2021, published 2026).
In brackets after ≈: the same amount, converted by molar mass.

What was measured:
Format in all cases: physicochemical
[1] = Suspension stability at 25° C.; details: for Solubility (μg/mL): LOQ: 0.25 μg/mL
Experimental: Suspension stability: Suspension stability of I-1 Form A and the 2 salt candidates was investigated in pure water, 0.5% (w/w) Tween 80 aqueous solution and 0.5% (w/w) MC (400 cP)+2% (w/w) Vitamin E TPGS aqueous solution at 25° C. for 2 h and 24 h. Target concentration was 2 mg/mL.
To confirm whether racemization occurs for the 2 salts in 0.5% (w/w) MC (400 cP)+2% (w/w) Vitamin E TPGS aqueous solution, the suspension stability in this vehicle was repeated at target concentration of 10 mg/mL. […] The hygroscopicity of these salts were further investigated.
Accurate 10 mg of I-1 Form A, 12.83 mg of I-3 Form A, 11.58 mg of I-4 Form A was weighed into a 8 mL glass vial, respectively. 5 mL of suspension vehicle was added, respectively. The salt amount used is equivalent to 10 mg anhydrous free form. These suspensions were stirred at 25° C. with 400 rpm. These suspensions were taken out at 2 hours and 24 hours, then centrifuged at 14,000 rpm for 5 min. The supernatants were analyzed by HPLC and pH meter. Solids obtained (wet cakes) were characterized by XRPD and HPLC to determine the chiral purity.
Accurate […] of I-3 Form A, 46.3 mg of I-4 Form A was weighed into a 8 mL glass vial, respectively. 4 mL of solubility medium was added, respectively. The salt amount used is equivalent to 40 mg anhydrous free form. 4 mL of the aqueous vehicle (0.5% (w/w) MC (400 cP) and 2% (w/w) Vitamin E TPGS in water) was added, respectively. These suspensions were stirred at 25° C. with 400 rpm. These suspensions were taken out at 2 hours and 24 hours, then centrifuged at 14,000 rpm for 5 min. The supernatants were analyzed by HPLC for the solubility and chiral purity and analyzed by pH meter. Solids obtained (wet cakes) were characterized by XRPD and HPLC for chiral purity.

[2] = Bulk stability (1 week); set-up: key to CL (color): A: No change of color; B: Slight discoloration; C: Medium discoloration; D: Strong discoloration; DC: complete decomposition; details: for CL (color) / Bulk (HPLC) chiral purity / Bulk (HPLC) purity / Bulk (XRPD): Solid state, 1 week
Experimental: Bulk stability of I-1 Form A and the 2 salt candidates was investigated at 25° C./92% RH in an open container, at 40° C./75% RH in an open container and at 60° C. in a tight container over 1 week. […] All the 3 salts show no obvious racemization based on chiral purity results.
I-1 Form A and the 2 salts were placed at 25° C./92% RH in an open container, at 40° C./75% RH in an open container and at 60° C. in a closed container for I week. Samples after I week were characterized by XRPD and HPLC and inspected for color change.

[3] = Salt screening (XRPD, chiral purity of hits)
Experimental: Based on the pKa of I-1 free form, 23 counter ions were selected as salt/cocrystal forming agents. Methanol, acetone and isopropyl acetate were used as screening solvents. 1.0 equivalent of selected counter ions/coformers was applied for salt screening. Slurry equilibration, slow evaporation and anti-solvent addition were used as crystallization methods. In total, about 70 screening experiments were conducted.
About 50 mg of I-1 Form A were added to a suitable amount of solvent and 1.0 equivalent of counter ions were added under stirring at 50° C. for 2 hours and then at 25° C. for at least 12 hours. MeOH, acetone and IPAc were used as screening solvents.
Obtained suspensions were taken out and centrifuged. Solids obtained were analyzed by XRPD and salt screening results were summarized in Table 5.1, Table 5.2, and Table 5.3.

[4] = 25° C., 2 mg/mL, 0.5%(w/w) MC(400 cP) and 2%(w/w) Vitamin E TPGS in water, 2 h, listed as I-1 Form A
[5] = 25° C., 2 mg/mL, 0.5%(w/w) MC(400 cP) and 2%(w/w) Vitamin E TPGS in water, 24 h, listed as I-1 Form A
[6] = 25° C., 2 mg/mL, 0.5%(w/w) Tween 80 in water, 2 h, listed as I-1 Form A
[7] = 25° C., 2 mg/mL, 0.5%(w/w) Tween 80 in water, 24 h, listed as I-1 Form A
[8] = 25° C., 2 mg/mL, Pure water, 2 h, listed as I-1 Form A
[9] = 25° C., 2 mg/mL, Pure water, 24 h, listed as I-1 Form A
[10] = Salt candidates risk matrix (summary)
[11] = 25° C./92% RH, open container, listed as I-1 Form A
[12] = 40° C./75% RH, open container, listed as I-1 Form A
[13] = 60° C., tight container, listed as I-1 Form A
[14] = before storage, listed as I-1 Form A

N#Cc1c(-c2cc(NC(=O)c3cc(F)cc(C(F)(F)F)c3)c3c(c2)C(=O)N[C@H]3c2cc(F)ccc2Cl)ccc2ncnn12 [Compound I-1, (R)-N-(3-(2-chloro-5-fluorophenyl)-6-(5-cyano-[1,2,4]triazolo[1,5-a]pyridin-6-yl)-1-oxoisoindolin-4-yl)-3-fluoro-5-(trifluoromethyl)benzamide]
physical stability in suspension (XRPD) ([1]; 3 vehicles, 25° C., 2 mg/mL): physically stable
racemization in suspension ([1]; 3 vehicles, 25° C., 2 mg/mL): no racemization
Chiral purity (solids) ([1]; 25° C., 2 mg/mL, 0.5%(w/w) MC(400 cP) and 2%(w/w) Vitamin E TPGS in water, 2 h): 98.7%
Chiral purity [1, 4]: 64.8%
Purity [1, 4]: 99.5%
Solubility [1, 4]: 47.9 µg/mL (≈ 78.7 µM)
pH [1, 4]: 5.02
Chiral purity (solids) ([1]; 25° C., 2 mg/mL, 0.5%(w/w) MC(400 cP) and 2%(w/w) Vitamin E TPGS in water, 24 h): 96.6%
Chiral purity [1, 5]: 97.7%
Purity [1, 5]: 99.1%
Solubility [1, 5]: 34.5 µg/mL (≈ 56.7 µM)
pH [1, 5]: 4.30
Chiral purity [1, 6]: 83.2%
Chiral purity (solids) [1, 6]: 98.8%
Purity [1, 6]: 99.1%
Solubility [1, 6]: 25.5 µg/mL (≈ 41.9 µM)
pH [1, 6]: 6.52
Chiral purity [1, 7]: 93.0%
Chiral purity (solids) [1, 7]: 97.6%
Purity [1, 7]: 99.2%
Solubility [1, 7]: 17.6 µg/mL (≈ 28.9 µM)
pH [1, 7]: 7.40
Solubility (μg/mL) ([1]; 25° C., 2 mg/mL, Pure water, 2 h): <LOQ
Chiral purity (solids) [1, 8]: 98.8%
Purity [1, 8]: 99.1%
pH [1, 8]: 6.79
Solubility (μg/mL) ([1]; 25° C., 2 mg/mL, Pure water, 24 h): <LOQ
Chiral purity (solids) [1, 9]: 96.7%
Purity [1, 9]: 99.2%
pH [1, 9]: 8.27
Initial chiral purity ([1]; before suspension, listed as I-1 Form A): Initial chiral purity: 98.9%
chemical stability in suspension ([1]; water, 0.5% Tween 80, 0.5% MC (400 cP)+2% Vitamin E TPGS, 25° C., 2 h and 24 h, 2 mg/mL): chemically stable
Chemical stability [2, 10]: Stable
Physical stability [2, 10]: Stable
CL (color) ([2]; 25° C./92% RH, open container): A
Bulk (HPLC) chiral purity [2, 11]: 98.9%
Bulk (HPLC) purity [2, 11]: 99.0%/
Bulk (XRPD) [2, 11]: No form change
CL (color) ([2]; 40° C./75% RH, open container): A
Bulk (HPLC) chiral purity [2, 12]: 98.9%
Bulk (HPLC) purity [2, 12]: 99.0%/
Bulk (XRPD) [2, 12]: No form change
Bulk (XRPD) ([2]; 60° C., tight container): No form change
CL (color) ([2]; 60° C., tight container): A
Bulk (HPLC) chiral purity [2, 13]: 98.9%
Bulk (HPLC) purity [2, 13]: 99.0%/
Chiral purity (initial) [2, 14]: 99.0%
Initial purity by HPLC [2, 14]: 99.0%
Salt screening result (slurry crystallization) ([3]; 1.0 equiv. HCl, Isopropyl acetate (second block of table)): clear solution
Salt screening result (slurry crystallization) ([3]; 1.0 equiv. HCl, MeOH): − (I-1 Form A) (Free form, counter ions, or physical mixtures)
Salt screening result (slurry crystallization) ([3]; 1.0 equiv. Hydrobromic acid, Acetone): thin suspension
Salt screening result (anti-solvent) ([3]; 1.0 equiv. Hydrobromic acid, Acetone/MTBE): thin suspension
Salt screening result (anti-solvent) ([3]; 1.0 equiv. Hydrobromic acid, IPAc/MTBE): thin suspension
Salt screening result (slurry crystallization) ([3]; 1.0 equiv. Hydrobromic acid, Isopropyl acetate): clear solution
Salt screening result (slurry crystallization) ([3]; 1.0 equiv. Hydrobromic acid, MeOH): − (I-1 Form A) (Free form, counter ions, or physical mixtures)
Salt screening result (slurry crystallization) ([3]; 1.0 equiv. L-aspartic acid, Acetone): − (physical mixtures (Free form, counter ions, or physical mixtures)
Salt screening result (slurry crystallization) ([3]; 1.0 equiv. L-aspartic acid, Isopropyl acetate): − (physical mixtures (Free form, counter ions, or physical mixtures)
Salt screening result (slurry crystallization) ([3]; 1.0 equiv. L-aspartic acid, MeOH): − (physical mixtures (Free form, counter ions, or physical mixtures)
Salt screening result (slurry crystallization) ([3]; 1.0 equiv. L-glutamic acid, Acetone): − (physical mixtures (Free form, counter ions, or physical mixtures)
Salt screening result (slurry crystallization) ([3]; 1.0 equiv. L-glutamic acid, Isopropyl acetate): − (physical mixtures (Free form, counter ions, or physical mixtures)
Salt screening result (slurry crystallization) ([3]; 1.0 equiv. L-glutamic acid, MeOH): − (physical mixtures (Free form, counter ions, or physical mixtures)
Salt screening result (slurry crystallization) ([3]; 1.0 equiv. L-malic acid, Acetone): thin suspension
Salt screening result (anti-solvent) ([3]; 1.0 equiv. L-malic acid, Acetone/MTBE): −(I-1 Form B) (Free form, counter ions, or physical mixtures)
Salt screening result (slurry crystallization) ([3]; 1.0 equiv. L-malic acid, Isopropyl acetate): − (I-1 Form A) (Free form, counter ions, or physical mixtures)
Salt screening result (slurry crystallization) ([3]; 1.0 equiv. L-malic acid, MeOH): − (I-1 Form A) (Free form, counter ions, or physical mixtures)
Salt screening result (slurry crystallization) ([3]; 1.0 equiv. L-tartaric acid, Acetone): thin suspension
Salt screening result (anti-solvent) ([3]; 1.0 equiv. L-tartaric acid, Acetone/MTBE): −(I-1 Form B) (Free form, counter ions, or physical mixtures)
